Legend:
Type in all cases: in vivo
Choristoneura magnanima = assay: Pesticidal test against Choristoneura magnanima (artificial feed dip); conditions: 144 h, 2-stage larvae, examined after 6 days, 25° C., read-out: pesticidal rate; for pest or weed control at 1 ppm: concentration 1 ppm; for pest or weed control at 10 ppm: concentration 10 ppm
How it was run: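 Thin artificial feed slices dipped 30 s in compound solution at a set concentration, air-dried, then offered to 2nd-stage larvae held at 25° C. Living and dead larvae counted after 6 days; five larvae per group, two replicates.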

Laodelphax striatellus = assay: Pesticidal test against Laodelphax striatellus (rice seedling spray); conditions: 144 h, concentration 100 ppm, 3-stage larvae, examined after 6 days, 25° C., read-out: pesticidal rate
How it was run: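 Rice seedlings sprayed with 2.5 ml acetone solution of compound at a predetermined concentration, air-dried, then infested with third-stage Laodelphax striatellus larvae in capped water-containing tubes at 25 °C. Living and dead insects counted after 6 days; ten larvae per group, two replicates.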

Plutella xylostella = assay: Pesticidal test against Plutella xylostella (cabbage leaf dip); conditions: foliar, 144 h, concentration 1 ppm, 2-stage larvae, examined after 6 days, 25° C., read-out: pesticidal rate
How it was run: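 Cabbage leaf pieces dipped 30 s in test solution at a predetermined concentration, air-dried, then offered to 2nd-instar larvae, five per group in duplicate. Held at 25° C; living and dead larvae counted after 6 days.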

Adoxophyes honmai = assay: Pesticidal test against Adoxophyes honmai (artificial feed dip); conditions: 144 h, 2-stage larvae, examined after 6 days, 25° C., read-out: pesticidal rate; for pest or weed control at 1 ppm: concentration 1 ppm; for pest or weed control at 10 ppm: concentration 10 ppm
How it was run: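 Thin artificial feed slices dipped 30 s in test solution at a predetermined concentration, air-dried, then offered to 2nd-stage larvae. Kept at 25° C; live and dead larvae counted after 6 days. Five larvae per group, two replicates.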

Musca domestica = assay: Pesticidal test against Musca domestica (petri dish dry film); conditions: 24 h, concentration 100 ppm, female adults, examined after 1 day, 25° C., read-out: pesticidal rate
How it was run: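 Dry film from 1 ml acetone solution of compound at a predetermined concentration, air-dried in a 9 cm petri dish; female adult flies released and dish capped. Held at 25° C; living and dead counted after 1 day. Five insects per group, two replicates.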

Blattella germanica = assay: Pesticidal test against Blattella germanica (petri dish dry film); conditions: 24 h, concentration 100 ppm, female adults, examined after 1 day, 25° C., read-out: pesticidal rate
Protocol: Pesticidal Test against Blattella germanica
1 ml of an acetone solution in which a test compound had been prepared at a predetermined concentration was added dropwise to a petri dish having a diameter of 9 cm, and air-dried, and then the female adults of Blattella germanica were released and the petri dish was capped. They were left to stand in a thermostatic chamber at 25° C., and the numbers of the living pests and the dead pests were examined after 1 day. The test was carried out with five larvae per group in two replicates.

Spodoptera litura = assay: Pesticidal test against Spodoptera litura (cabbage leaf dip); conditions: foliar, 144 h, concentration 1 ppm, 2-stage larvae, examined after 6 days, 25° C., read-out: pesticidal rate
How it was run: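 Cabbage leaf pieces dipped 30 seconds in compound solution at a predetermined concentration and air-dried, then offered to second-stage larvae, five per group in two replicates. Held at 25° C. Living and dead larvae counted after 6 days.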

Helicoverpa armigera = assay: Pesticidal test against Helicoverpa armigera (cabbage leaf disk dip); conditions: foliar, 72 h, concentration 1 ppm, 2-stage larvae, examined after 3 days, 25° C., read-out: pesticidal rate
How it was run: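 Cabbage leaf disks were dipped for 30 s in test solution at a set concentration and air-dried. Second-instar larvae were placed one per hole and held at 25 °C, with live and dead counts taken after 3 days. Five larvae per group were tested in two replicates.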

CN(C(=O)c1cccc(F)c1)c1cccc(C(=O)Nc2c(Br)cc(C(F)(C(F)(F)F)C(F)(F)F)cc2C(F)(F)F)c1F [7-1576]
≥ 70%: pest or weed control at 1 ppm (Choristoneura magnanima) | pest or weed control at 100 ppm (Laodelphax striatellus) | pest or weed control at 1 ppm (Plutella xylostella) | pest or weed control at 1 ppm (Adoxophyes honmai) | pest or weed control at 100 ppm (Musca domestica) | pest or weed control at 100 ppm (Blattella germanica) | pest or weed control at 1 ppm (Spodoptera litura) | pest or weed control at 1 ppm (Helicoverpa armigera)

CN(C(=O)c1cccc(F)c1)c1cccc(C(=O)Nc2c(Br)cc(C(F)(C(F)(F)F)C(F)(F)F)cc2Br)c1F [7-1106]
≥ 70%: pest or weed control at 1 ppm (Choristoneura magnanima) | pest or weed control at 100 ppm (Laodelphax striatellus) | pest or weed control at 1 ppm (Plutella xylostella) | pest or weed control at 1 ppm (Adoxophyes honmai) | pest or weed control at 100 ppm (Musca domestica) | pest or weed control at 100 ppm (Blattella germanica) | pest or weed control at 1 ppm (Spodoptera litura) | pest or weed control at 1 ppm (Helicoverpa armigera)

O=C(Nc1c(Br)cc(C(F)(C(F)(F)F)C(F)(F)C(F)(F)F)cc1C(F)(F)F)c1cccc(NC(=O)c2cccnc2Cl)c1 (stereo not drawn) [6-382]
≥ 70%: pest or weed control at 10 ppm (Choristoneura magnanima) | pest or weed control at 100 ppm (Laodelphax striatellus) | pest or weed control at 1 ppm (Plutella xylostella) | pest or weed control at 1 ppm (Adoxophyes honmai) | pest or weed control at 100 ppm (Musca domestica) | pest or weed control at 100 ppm (Blattella germanica) | pest or weed control at 1 ppm (Spodoptera litura) | pest or weed control at 1 ppm (Helicoverpa armigera)

O=C(Nc1cccc(C(=O)Nc2c(I)cc(C(F)(C(F)(F)F)C(F)(F)F)cc2C(F)(F)F)c1F)c1cccc(F)c1 [6-1732]
≥ 70%: pest or weed control at 1 ppm (Choristoneura magnanima) | pest or weed control at 100 ppm (Laodelphax striatellus) | pest or weed control at 1 ppm (Plutella xylostella) | pest or weed control at 1 ppm (Adoxophyes honmai) | pest or weed control at 100 ppm (Musca domestica) | pest or weed control at 100 ppm (Blattella germanica) | pest or weed control at 1 ppm (Spodoptera litura) | pest or weed control at 1 ppm (Helicoverpa armigera)

CN(C(=O)c1cccnc1Cl)c1cccc(C(=O)Nc2c(Br)cc(C(F)(C(F)(F)F)C(F)(F)C(F)(F)F)cc2C(F)(F)F)c1 (stereo not drawn) [7-382]
≥ 70%: pest or weed control at 1 ppm (Choristoneura magnanima) | pest or weed control at 100 ppm (Laodelphax striatellus) | pest or weed control at 1 ppm (Plutella xylostella) | pest or weed control at 1 ppm (Adoxophyes honmai) | pest or weed control at 100 ppm (Musca domestica) | pest or weed control at 100 ppm (Blattella germanica) | pest or weed control at 1 ppm (Spodoptera litura) | pest or weed control at 1 ppm (Helicoverpa armigera)

CN(C(=O)c1ccc(F)cc1)c1cccc(C(=O)Nc2c(I)cc(C(F)(C(F)(F)F)C(F)(F)C(F)(F)F)cc2C(F)(F)F)c1 (stereo not drawn) [7-505]
≥ 70%: pest or weed control at 1 ppm (Choristoneura magnanima) | pest or weed control at 1 ppm (Plutella xylostella) | pest or weed control at 1 ppm (Adoxophyes honmai) | pest or weed control at 100 ppm (Blattella germanica) | pest or weed control at 1 ppm (Spodoptera litura) | pest or weed control at 1 ppm (Helicoverpa armigera)

CN(C(=O)c1cccnc1Cl)c1cccc(C(=O)Nc2c(I)cc(C(F)(C(F)(F)F)C(F)(F)C(F)(F)F)cc2C(F)(F)F)c1 (stereo not drawn) [7-538]
≥ 70%: pest or weed control at 10 ppm (Choristoneura magnanima) | pest or weed control at 100 ppm (Laodelphax striatellus) | pest or weed control at 1 ppm (Plutella xylostella) | pest or weed control at 1 ppm (Adoxophyes honmai) | pest or weed control at 100 ppm (Musca domestica) | pest or weed control at 100 ppm (Blattella germanica) | pest or weed control at 1 ppm (Spodoptera litura) | pest or weed control at 1 ppm (Helicoverpa armigera)

O=C(Nc1cccc(C(=O)Nc2c(Br)cc(C(F)(C(F)(F)F)C(F)(F)F)cc2C(F)(F)F)c1F)c1ccc(F)cc1 [6-1577]
≥ 70%: pest or weed control at 1 ppm (Choristoneura magnanima) | pest or weed control at 100 ppm (Laodelphax striatellus) | pest or weed control at 1 ppm (Plutella xylostella) | pest or weed control at 10 ppm (Adoxophyes honmai) | pest or weed control at 100 ppm (Musca domestica) | pest or weed control at 100 ppm (Blattella germanica) | pest or weed control at 1 ppm (Spodoptera litura) | pest or weed control at 1 ppm (Helicoverpa armigera)

CN(C(=O)c1ccccc1)c1cccc(C(=O)Nc2c(I)cc(C(F)(C(F)(F)F)C(F)(F)C(F)(F)F)cc2C(F)(F)F)c1 (stereo not drawn) [7-502]
≥ 70%: pest or weed control at 1 ppm (Choristoneura magnanima) | pest or weed control at 1 ppm (Plutella xylostella) | pest or weed control at 1 ppm (Adoxophyes honmai) | pest or weed control at 100 ppm (Blattella germanica) | pest or weed control at 1 ppm (Spodoptera litura) | pest or weed control at 1 ppm (Helicoverpa armigera)

CN(C(=O)c1ccc(C#N)cc1)c1cccc(C(=O)Nc2c(Br)cc(C(F)(C(F)(F)F)C(F)(F)F)cc2C(F)(F)F)c1F [7-1595]
≥ 70%: pest or weed control at 1 ppm (Choristoneura magnanima) | pest or weed control at 100 ppm (Laodelphax striatellus) | pest or weed control at 1 ppm (Plutella xylostella) | pest or weed control at 100 ppm (Blattella germanica) | pest or weed control at 1 ppm (Spodoptera litura) | pest or weed control at 1 ppm (Helicoverpa armigera)

CN(C(=O)c1cccc(C#N)c1)c1cccc(C(=O)Nc2c(Br)cc(C(F)(C(F)(F)F)C(F)(F)F)cc2C(F)(F)F)c1F [7-1594]
≥ 70%: pest or weed control at 1 ppm (Choristoneura magnanima) | pest or weed control at 100 ppm (Laodelphax striatellus) | pest or weed control at 1 ppm (Plutella xylostella) | pest or weed control at 1 ppm (Adoxophyes honmai) | pest or weed control at 100 ppm (Blattella germanica) | pest or weed control at 1 ppm (Spodoptera litura) | pest or weed control at 1 ppm (Helicoverpa armigera)

CN(C(=O)c1ccc(C#N)cc1)c1cccc(C(=O)Nc2c(Br)cc(C(F)(C(F)(F)F)C(F)(F)F)cc2Br)c1F [7-1125]
≥ 70%: pest or weed control at 1 ppm (Choristoneura magnanima) | pest or weed control at 100 ppm (Laodelphax striatellus) | pest or weed control at 1 ppm (Plutella xylostella) | pest or weed control at 100 ppm (Blattella germanica) | pest or weed control at 1 ppm (Spodoptera litura) | pest or weed control at 1 ppm (Helicoverpa armigera)

CN(C(=O)c1ccc(Cl)nc1)c1cccc(C(=O)Nc2c(Br)cc(C(F)(C(F)(F)F)C(F)(F)F)cc2C(F)(F)F)c1F [7-1617]
≥ 70%: pest or weed control at 1 ppm (Choristoneura magnanima) | pest or weed control at 100 ppm (Laodelphax striatellus) | pest or weed control at 1 ppm (Plutella xylostella) | pest or weed control at 100 ppm (Blattella germanica) | pest or weed control at 1 ppm (Spodoptera litura) | pest or weed control at 1 ppm (Helicoverpa armigera)

N#Cc1ccc(C(=O)Nc2cccc(C(=O)Nc3c(Br)cc(C(F)(C(F)(F)F)C(F)(F)F)cc3C(F)(F)F)c2F)cc1 [6-1595]
≥ 70%: pest or weed control at 1 ppm (Choristoneura magnanima) | pest or weed control at 100 ppm (Laodelphax striatellus) | pest or weed control at 1 ppm (Plutella xylostella) | pest or weed control at 100 ppm (Blattella germanica) | pest or weed control at 1 ppm (Spodoptera litura) | pest or weed control at 1 ppm (Helicoverpa armigera)

N#Cc1ccc(C(=O)Nc2cccc(C(=O)Nc3c(I)cc(C(F)(C(F)(F)F)C(F)(F)F)cc3C(F)(F)F)c2F)cc1 [6-1751]
≥ 70%: pest or weed control at 1 ppm (Choristoneura magnanima) | pest or weed control at 100 ppm (Laodelphax striatellus) | pest or weed control at 1 ppm (Plutella xylostella) | pest or weed control at 100 ppm (Musca domestica) | pest or weed control at 100 ppm (Blattella germanica) | pest or weed control at 1 ppm (Spodoptera litura) | pest or weed control at 1 ppm (Helicoverpa armigera)

CN(C(=O)c1ccc(Cl)nc1)c1cccc(C(=O)Nc2c(Br)cc(C(F)(C(F)(F)F)C(F)(F)C(F)(F)F)cc2C(F)(F)F)c1 (stereo not drawn) [7-389]
≥ 70%: pest or weed control at 1 ppm (Choristoneura magnanima) | pest or weed control at 100 ppm (Laodelphax striatellus) | pest or weed control at 1 ppm (Plutella xylostella) | pest or weed control at 100 ppm (Musca domestica) | pest or weed control at 100 ppm (Blattella germanica) | pest or weed control at 1 ppm (Spodoptera litura) | pest or weed control at 1 ppm (Helicoverpa armigera)

CN(C(=O)c1ccc(F)cc1)c1cccc(C(=O)Nc2c(Br)cc(C(F)(C(F)(F)F)C(F)(F)F)cc2Br)c1F [7-1107]
≥ 70%: pest or weed control at 1 ppm (Choristoneura magnanima) | pest or weed control at 100 ppm (Laodelphax striatellus) | pest or weed control at 1 ppm (Plutella xylostella) | pest or weed control at 100 ppm (Musca domestica) | pest or weed control at 100 ppm (Blattella germanica) | pest or weed control at 1 ppm (Spodoptera litura) | pest or weed control at 1 ppm (Helicoverpa armigera)

O=C(Nc1cccc(C(=O)Nc2c(Br)cc(C(F)(C(F)(F)F)C(F)(F)F)cc2Br)c1F)c1cccc(F)c1 [6-1106]
≥ 70%: pest or weed control at 1 ppm (Choristoneura magnanima) | pest or weed control at 100 ppm (Laodelphax striatellus) | pest or weed control at 1 ppm (Plutella xylostella) | pest or weed control at 1 ppm (Adoxophyes honmai) | pest or weed control at 100 ppm (Blattella germanica) | pest or weed control at 1 ppm (Spodoptera litura) | pest or weed control at 1 ppm (Helicoverpa armigera)

N#Cc1ccc(C(=O)Nc2cccc(C(=O)Nc3c(Br)cc(C(F)(C(F)(F)F)C(F)(F)C(F)(F)F)cc3C(F)(F)F)c2)cc1 (stereo not drawn) [6-367]
≥ 70%: pest or weed control at 1 ppm (Choristoneura magnanima) | pest or weed control at 1 ppm (Plutella xylostella) | pest or weed control at 10 ppm (Adoxophyes honmai) | pest or weed control at 100 ppm (Blattella germanica) | pest or weed control at 1 ppm (Spodoptera litura) | pest or weed control at 1 ppm (Helicoverpa armigera)

O=C(Nc1cccc(C(=O)Nc2c(I)cc(C(F)(C(F)(F)F)C(F)(F)F)cc2C(F)(F)F)c1)c1cccc(F)c1 [6-426]
≥ 70%: pest or weed control at 1 ppm (Choristoneura magnanima) | pest or weed control at 1 ppm (Plutella xylostella) | pest or weed control at 10 ppm (Adoxophyes honmai) | pest or weed control at 100 ppm (Musca domestica) | pest or weed control at 100 ppm (Blattella germanica) | pest or weed control at 1 ppm (Spodoptera litura) | pest or weed control at 1 ppm (Helicoverpa armigera)

O=C(Nc1cccc(C(=O)Nc2c(Br)cc(C(F)(C(F)(F)F)C(F)(F)F)cc2C(F)(F)F)c1F)c1cccc(F)c1 [6-1576]
≥ 70%: pest or weed control at 100 ppm (Laodelphax striatellus) | pest or weed control at 1 ppm (Plutella xylostella) | pest or weed control at 1 ppm (Adoxophyes honmai) | pest or weed control at 100 ppm (Musca domestica) | pest or weed control at 100 ppm (Blattella germanica) | pest or weed control at 1 ppm (Spodoptera litura) | pest or weed control at 1 ppm (Helicoverpa armigera)
